# According to patent publication US20140249295A1, “LIGHT-INDUCIBLE SYSTEM FOR REGULATING PROTEIN STABILITY” (The Board of Trustees Of The Leland Stanford Junior …, priority 2013, published 2014):
# Where a SMILES comes first, the peptide text is derived from it. The star is where a group is joined. Cbz = O=C(OCc1ccccc1)*
# Tests used:
# 3T3 cells = details: cited from earlier work
# NIH3T3 cells = assay: Flow cytometry / immunoblot of NIH3T3 cells stably expressing YFP-LOV2 domain fusions, dark vs blue light; assay type: cell-based; details: 10 μM MG132, blue light 2 hours, FACS analysis
# Method: Genes encoding the proteins tested as fusions to the BLID domain were cloned by standard techniques in the retroviral pBMN vector encoding an iHcRed-t or iBlasticidin. The ΦNX ecotropic packaging cell line was cultured in DMEM supplemented with 10% heat-inactivated fetal bovine serum, 2 mM glutamine, 100 U/mL penicillin and 100 μg/mL streptomycin. The NIH3T3 cell line was cultured in DMEM supplemented with 10% heat-inactivated donor bovine serum, 2 mM glutamine, 100 U/mL penicillin and 100 μg/mL streptomycin. The ΦNX cells were transfected using standard Lipofectamine 2000 protocols. Viral supernatants were harvested 48 h posttransfection and filtered through a 0.45 μm nylon syringe filter. NIH3T3 cells were incubated with the retroviral supernatants supplemented with 4 μg/mL polybrene for 4-6 h at 37° C. Cells were cultured in growth media for 24 to 36 h to allow for viral integration, then assayed as described.
# Twenty-four hours prior to analysis, transduced NIH3T3 cells were plated at 1×10^5 cells per well of a 12-well plate and treated with vehicle or blue light for indicated time points prior to analysis. […] Samples were analyzed at the Stanford Shared FACS Facility with 10,000 events represented.
# For immunoblotting, NIH3T3 cells were washed in PBS and lysed on ice in MIPP buffer containing protease inhibitors. Protein concentration was measured by Bradford assay. […]
Compound,fluorescence of YFP with C-terminal degron (3T3 cells),effect on light-dependent decrease in fluorescence of YFP-LOV24 (NIH3T3 cells)
RRRG,no fluorescence is observed,–
CC(C)C[C@@H](C=O)NC(=O)[C@H](CC(C)C)NC(=O)[C@H](CC(C)C)NC(=O)OCc1ccccc1 [MG132] (Cbz-Leu-Leu-Leu-aldehyde),–,prevents the light-dependent decrease in fluorescence
